The results in this text go back to patent US8148391B2 (Cephalon, Inc., priority 2006, dated 2012).

The target of assay [1] is T1, c-Met (cytoplasmic domain) (Homo sapiens, UniProt P08581).
T1 construct: 10 ng/mL c-Met (cytoplasmic domain, Invitrogen Corporation #PV3143); purchased Invitrogen Corporation PV3143
The assay can be described thus: c-Met Kinase Assay (same methods as for ALK, with modifications). It counts as biochemical. Put shortly:
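Steps: coat wells with PLC-γ (10 μg/mL, Tris-buffered saline); add 10 ng/mL c-Met cytoplasmic domain to initiate; incubate 15 min, 37° C; detect phosphoproduct via Eu-N1 PT66 antibody.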

Assay [2] concerns the target T2, baculovirus-expressed ALK (Homo sapiens, UniProt Q9UM73).
T2 construct: host or cells: baculovirus expression system
The assay is described as follows: ALK Kinase Assay (ELISA-type, time-resolved fluorescence). The format is biochemical. Put shortly:
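Wells were coated with phospholipase C-γ at 10 μg/mL in Tris-buffered saline. Adding 30 ng/ml enzyme started the reaction, which ran at 37° C for 15 minutes before Eu-N1 PT66 antibody detection. Percent inhibition versus log10 concentration gave IC50 by variable-slope fit.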
In general terms: An ELISA detects its analyte on a solid surface through an enzyme-linked reagent.

Where [3] appears, read: 1 μM ATP (Km level), read-out: cMet Activity (c-Met Kinase Inhibition, IC50).
Where [4] appears, read: 1 μM ATP (Km level), read-out: ALK Activity (ALK Kinase Inhibition, IC50).
The mark [5] stands for this setting: c-Met kinase inhibition, 1 μM ATP, read-out: cMet Activity.
[6] abbreviates: ALK kinase inhibition, 1 μM ATP, read-out: ALK Activity.
[7] abbreviates: c-Met kinase inhibition, 1 μM ATP (Km level), read-out: cMet Activity.
[8] abbreviates: ALK kinase inhibition, 1 μM ATP (Km level), read-out: ALK Activity.
Where [9] appears, read: 1 μM ATP (Km level), 10 ng/mL c-Met, read-out: cMet Activity (c-Met kinase inhibition, IC50 class).
[10] abbreviates: 1 μM ATP (Km level), 30 ng/ml ALK, 37° C., 15 minutes, read-out: ALK Activity (ALK kinase inhibition, IC50 class).

Where two headings read alike, the source gives them in different places.

T2 sequence (Q9UM73 19-1620): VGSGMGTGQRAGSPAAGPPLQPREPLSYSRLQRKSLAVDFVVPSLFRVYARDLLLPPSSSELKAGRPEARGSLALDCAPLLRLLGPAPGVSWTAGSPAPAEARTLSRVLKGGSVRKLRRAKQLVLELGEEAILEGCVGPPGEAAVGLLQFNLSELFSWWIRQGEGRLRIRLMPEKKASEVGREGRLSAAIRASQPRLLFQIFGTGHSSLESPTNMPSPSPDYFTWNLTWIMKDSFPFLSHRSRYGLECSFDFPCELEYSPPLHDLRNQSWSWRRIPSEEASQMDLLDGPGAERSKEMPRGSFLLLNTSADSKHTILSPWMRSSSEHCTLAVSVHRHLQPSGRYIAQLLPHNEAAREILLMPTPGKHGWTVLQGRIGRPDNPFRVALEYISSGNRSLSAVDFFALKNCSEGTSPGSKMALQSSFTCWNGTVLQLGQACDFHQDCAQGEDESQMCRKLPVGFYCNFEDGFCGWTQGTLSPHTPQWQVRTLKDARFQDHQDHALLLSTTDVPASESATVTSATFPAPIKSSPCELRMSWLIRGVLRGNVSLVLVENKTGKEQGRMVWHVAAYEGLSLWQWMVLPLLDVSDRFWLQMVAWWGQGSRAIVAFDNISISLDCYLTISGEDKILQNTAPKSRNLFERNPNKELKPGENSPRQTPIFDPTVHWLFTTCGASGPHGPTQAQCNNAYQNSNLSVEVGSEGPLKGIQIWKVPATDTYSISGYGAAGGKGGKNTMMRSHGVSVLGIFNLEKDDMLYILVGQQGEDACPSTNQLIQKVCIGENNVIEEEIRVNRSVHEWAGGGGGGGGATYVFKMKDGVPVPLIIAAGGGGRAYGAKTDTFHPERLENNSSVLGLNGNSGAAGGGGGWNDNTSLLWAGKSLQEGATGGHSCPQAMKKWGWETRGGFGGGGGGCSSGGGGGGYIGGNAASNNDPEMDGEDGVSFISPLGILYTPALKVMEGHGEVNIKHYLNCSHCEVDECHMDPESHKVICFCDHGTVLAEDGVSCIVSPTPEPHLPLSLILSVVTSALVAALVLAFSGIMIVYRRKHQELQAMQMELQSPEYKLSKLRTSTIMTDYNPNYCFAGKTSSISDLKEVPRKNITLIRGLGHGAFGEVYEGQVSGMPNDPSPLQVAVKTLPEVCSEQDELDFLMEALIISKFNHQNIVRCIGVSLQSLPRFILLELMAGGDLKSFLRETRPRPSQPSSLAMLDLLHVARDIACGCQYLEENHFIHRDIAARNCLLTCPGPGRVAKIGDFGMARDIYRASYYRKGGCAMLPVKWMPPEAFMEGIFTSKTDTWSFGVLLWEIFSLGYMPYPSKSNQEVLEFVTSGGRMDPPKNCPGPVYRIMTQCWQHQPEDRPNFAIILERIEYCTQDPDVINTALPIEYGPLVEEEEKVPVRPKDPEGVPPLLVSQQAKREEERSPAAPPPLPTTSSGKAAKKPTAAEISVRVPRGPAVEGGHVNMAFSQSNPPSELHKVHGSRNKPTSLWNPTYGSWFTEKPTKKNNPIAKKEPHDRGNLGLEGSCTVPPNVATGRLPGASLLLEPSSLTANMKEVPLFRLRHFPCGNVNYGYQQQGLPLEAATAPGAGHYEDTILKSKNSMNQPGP
T1 sequence (P08581 956-1390 limits assumed): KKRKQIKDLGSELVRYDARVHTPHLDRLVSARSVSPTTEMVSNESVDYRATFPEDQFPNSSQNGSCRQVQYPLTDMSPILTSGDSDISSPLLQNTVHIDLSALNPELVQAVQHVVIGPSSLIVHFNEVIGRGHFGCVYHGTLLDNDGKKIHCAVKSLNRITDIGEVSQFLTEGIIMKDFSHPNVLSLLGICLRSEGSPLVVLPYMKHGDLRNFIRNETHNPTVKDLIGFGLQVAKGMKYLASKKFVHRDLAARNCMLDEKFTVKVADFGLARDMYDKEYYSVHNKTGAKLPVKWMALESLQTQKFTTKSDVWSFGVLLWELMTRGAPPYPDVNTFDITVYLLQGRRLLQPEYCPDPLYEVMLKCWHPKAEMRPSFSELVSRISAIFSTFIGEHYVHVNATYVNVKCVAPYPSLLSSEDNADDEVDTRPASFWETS

Regarding `COc1cc2c(cc1Nc1ncc(Cl)c(Nc3ccccc3-n3cccn3)n1)CCN(CC(C)(F)F)CC2` [Example 825, 5-Chloro-N*2*-[3-(2,2-difluoro-propyl)-8-methoxy-2,3,4,5-tetrahydro-1H-benzo[d]azepin-7-yl]-N*4*-(2-pyrazol-1-yl-phenyl)-pyrimidine-2,4-diamine], the IC50 is greater than 10000 nM in assay [1] (setting [3]) and 100 to 1000 nM in assay [2] (setting [4]).
As to `CNC(=O)c1cccc(C)c1Nc1nc(Nc2ccc3c(c2)CCC(=O)NC3(C)C)ncc1Cl` [Example 1830, 2-(5-Chloro-2-(1,1-dimethyl-3-oxo-2,3,4,5-tetrahydro-1H-benzo[c]azepin-7-ylamino)pyrimidin-4-ylamino)-N,3-dimethylbenzamide], the IC50 is less than 100 nM in assay [1] (setting [5]) and 1000 to 10000 nM in assay [2] (setting [6]).
For `CCN1CCc2ccc(Nc3ncc(Cl)c(NC4CCCCNC4=O)n3)cc2CC1` (centres unmarked) [Example 166, 3-[5-Chloro-2-(3-ethyl-2,3,4,5-tetrahydro-1H-benzo[d]azepin-7-ylamino)-pyrimidin-4-ylamino]-azepan-2-one], the results for the IC50 in assay [1] (setting [7]) and in assay [2] (setting [8]) were 1000 to 10000 nM and less than 100 nM, respectively.
In the same order, the values of `CCN1C(=O)CCCc2c1ccc(Nc1ncc(Cl)c(N[C@@H]3[C@H](C(N)=O)[C@H]4C=C[C@@H]3C4)n1)c2OC` [Example 132, (1R,2R,3S,4S)-3-[5-Chloro-2-(1-ethyl-6-methoxy-2-oxo-2,3,4,5-tetrahydro-1H-benzo[b]azepin-7-ylamino)-pyrimidin-4-ylamino]-bicyclo[2.2.1]hept-5-ene-2-carboxylic acid amide] are greater than 10000 nM and 1000 to 10000 nM.
Take “(1S,2S,3R,4R)-3-{5-Chloro-2-[7-(2,2-difluoro-ethylamino)-6,7,8,9-tetrahydro-5H-benzocyclohepten-2-ylamino]-pyrimidin-4-ylamino}-bicyclo[2.2.1]hept-5-ene-2-carboxylic acid amide [Example 677]”: the IC50 was greater than 10000 nM in assay [1] (setting [3]) and less than 100 nM in assay [2] (setting [4]).
For the molecule `COCCN1CCc2cc(Nc3ncc(Cl)c(N[C@H]4[C@@H](C(N)=O)[C@@H]5C=C[C@H]4C5)n3)c(OC)cc2CC1` [Example 1315, (1S,2S,3R,4R)-3-{5-Chloro-2-[8-methoxy-3-(2-methoxy-ethyl)-2,3,4,5-tetrahydro-1H-benzo[d]azepin-7-ylamino]-pyrimidin-4-ylamino}-bicyclo[2.2.1]hept-5-ene-2-carboxylic acid amide], the IC50 in assay [1] (setting [9]) was greater than 10000 nM; in assay [2] (setting [10]), less than 100 nM.
Take `COc1cc(N2CCOCC2)ccc1Nc1nc(Nc2ccc3c(c2)CCCC(=O)N3C(C)C)ncc1Cl` [Example 666, 7-[5-Chloro-4-(2-methoxy-4-morpholin-4-yl-phenylamino)-pyrimidin-2-ylamino]-1-isopropyl-1,3,4,5-tetrahydro-benzo[b]azepin-2-one]: the IC50 in assay [1] (setting [3]) was in the range of 1000 to 10000 nM; in assay [2] (setting [4]), 100 to 1000 nM.
For `COc1cc2c(cc1Nc1ncc(Cl)c(Nc3cc(C#N)ccc3OC)n1)CCN(CC(=O)N(C)C)CC2` [Example 1149, 2-{7-[5-Chloro-4-(5-cyano-2-methoxy-phenylamino)-pyrimidin-2-ylamino]-8-methoxy-1,2,4,5-tetrahydro-benzo[d]azepin-3-yl}-N,N-dimethyl-acetamide], the IC50 was 1000 to 10000 nM in assay [1] (setting [9]) and less than 100 nM in assay [2] (setting [10]).
As for `COc1cc2c(cc1Nc1ncc(Cl)c(Nc3ccc(Cl)cc3S(=O)(=O)N(C)C)n1)CCN(CC(=O)N1CCN(C)CC1)CC2` [Example 842, 5-Chloro-2-(5-chloro-2-{8-methoxy-3-[2-(4-methyl-piperazin-1-yl)-2-oxo-ethyl]-2,3,4,5-tetrahydro-1H-benzo[d]azepin-7-ylamino}-pyrimidin-4-ylamino)-N,N-dimethyl-benzenesulfonamide], the values for the IC50 in assay [1] (setting [3]) and in assay [2] (setting [4]) were greater than 10000 nM and less than 100 nM, respectively.
Regarding `CNC(=O)c1cccc(Cl)c1Nc1nc(Nc2ccc3c(c2)CCCC(=O)N3C)ncc1Cl` [Example 352, 3-Chloro-2-[5-chloro-2-(1-methyl-2-oxo-2,3,4,5-tetrahydro-1H-benzo[b]azepin-7-ylamino)-pyrimidin-4-ylamino]-N-methyl-benzamide], the results for the IC50 in assay [1] (setting [7]) and in assay [2] (setting [8]) were less than 100 nM and 1000 to 10000 nM, respectively.
Taken in the same sequence, the figures for `CNC(=O)c1ccccc1Nc1nc(Nc2ccc3c(c2)C2CCC3CN(CCF)C2)ncc1Cl` (centres unmarked) [Example 280, 2-{5-Chloro-2-[10-(2-fluoro-ethyl)-10-aza-tricyclo[6.3.2.0*2,7*]trideca-2,4,6-trien-4-ylamino]-pyrimidin-4-ylamino}-N-methyl-benzamide] were less than 100 nM and less than 100 nM.
Taken in the same sequence, the figures for `CNC(=O)c1ccccc1Nc1nc(Nc2ccc3c(c2)CCN(C[C@H](OC)C(F)(F)F)CC3)ncc1Cl` [Example 335, 2-{5-Chloro-2-[3-((S)-3,3,3-trifluoro-2-methoxy-propyl)-2,3,4,5-tetrahydro-1H-benzo[d]azepin-7-ylamino]-pyrimidin-4-ylamino}-N-methyl-benzamide] were less than 100 nM and less than 100 nM.
Consider `COc1cc2c(cc1Nc1ncc(Cl)c(Nc3ccc(Cl)cc3S(=O)(=O)N(C)C)n1)CCN(CCO)CC2` [Example 840, 5-Chloro-2-{5-chloro-2-[3-(2-hydroxy-ethyl)-8-methoxy-2,3,4,5-tetrahydro-1H-benzo[d]azepin-7-ylamino]-pyrimidin-4-ylamino}-N,N-dimethyl-benzenesulfonamide], for which the IC50 is greater than 10000 nM in assay [1] (setting [3]) and less than 100 nM in assay [2] (setting [4]).
In the same order, the values of `COCCN1CCc2ccc(Nc3ncc(Cl)c(Nc4ccccc4-c4ncccc4OC)n3)cc2CC1` [Example 990, 5-Chloro-N*2*-[3-(2-methoxy-ethyl)-2,3,4,5-tetrahydro-1H-benzo[d]azepin-7-yl]-N*4*-[2-(3-methoxy-pyridin-2-yl)-phenyl]-pyrimidine-2,4-diamine] are 100 to 1000 nM and less than 100 nM.
Take `COc1cc(N2CCOCC2)ccc1Nc1nc(Nc2ccc3c(c2)CCC(=O)CC3)ncc1Cl` [Example 175, 2-[5-Chloro-4-(2-methoxy-4-morpholin-4-yl-phenylamino)-pyrimidin-2-ylamino]-5,6,8,9-tetrahydro-benzocyclohepten-7-one]: the IC50 in assay [1] (setting [7]) is 1000 to 10000 nM; in assay [2] (setting [8]) it was less than 100 nM.
In the case of `COCCOc1ccc(Nc2nc(Nc3cc4c(cc3OC)CCN(CCS(C)(=O)=O)CC4)ncc2Cl)c(OC)c1` [Example 1168, 5-Chloro-N*2*-[3-(2-methanesulfonyl-ethyl)-8-methoxy-2,3,4,5-tetrahydro-1H-benzo[d]azepin-7-yl]-N*4*-[2-methoxy-4-(2-methoxy-ethoxy)-phenyl]-pyrimidine-2,4-diamine], the IC50 in assay [1] (setting [9]) was greater than 10000 nM; in assay [2] (setting [10]) it was less than 100 nM.
In the case of `COc1c(Nc2ncc(Cl)c(N[C@H]3[C@@H](C(N)=O)[C@@H]4C=C[C@H]3C4)n2)ccc2c1CCCC(=O)N2` (relative stereo) [Example 139, (2-exo,3-exo)-3-[5-Chloro-2-(6-methoxy-2-oxo-2,3,4,5-tetrahydro-1H-benzo[b]azepin-7-ylamino)-pyrimidin-4-ylamino]-bicyclo[2.2.1]hept-5-ene-2-carboxylic acid amide], the results for the IC50 in assay [1] (setting [7]) and in assay [2] (setting [8]) were greater than 10000 nM and less than 100 nM, respectively.
`CNC(=O)c1cccc(Cl)c1Nc1nc(Nc2ccc3c(c2)CCN(CC(=O)N(C)C)CC3)ncc1Cl` [Example 1370, 3-Chloro-2-[5-chloro-2-(3-dimethylcarbamoylmethyl-2,3,4,5-tetrahydro-1H-benzo[d]azepin-7-ylamino)-pyrimidin-4-ylamino]-N-methyl-benzamide]: the IC50 in assay [1] (setting [9]) is less than 100 nM; in assay [2] (setting [10]), 100 to 1000 nM.
As for `COc1c(Nc2ncc(Cl)c(Nc3ccccc3-n3cccn3)n2)ccc2c1CCC(NCC(F)(F)F)CC2` (centres unmarked) [Example 690, 5-Chloro-N*2*-[1-methoxy-7-(2,2,2-trifluoro-ethylamino)-6,7,8,9-tetrahydro-5H-benzocyclohepten-2-yl]-N*4*-(2-pyrazol-1-yl-phenyl)-pyrimidine-2,4-diamine], the IC50 in assay [1] (setting [3]) was greater than 10000 nM; in assay [2] (setting [4]) it was 100 to 1000 nM.
In the same order, the values of `COCCN1CCc2cc(Nc3ncc(Cl)c(Nc4ccc(Cl)cc4S(=O)(=O)N(C)C)n3)c(OC)cc2CC1` [Example 839, 5-Chloro-2-{5-chloro-2-[8-methoxy-3-(2-methoxy-ethyl)-2,3,4,5-tetrahydro-1H-benzo[d]azepin-7-ylamino]-pyrimidin-4-ylamino}-N,N-dimethyl-benzenesulfonamide] are greater than 10000 nM and less than 100 nM.
Take `CCN1C(=O)CCCc2cc(Nc3ncc(Cl)c(Nc4ccccc4OC)n3)c(OC)cc21` [Example 1318, 7-[5-Chloro-4-(2-methoxy-phenylamino)-pyrimidin-2-ylamino]-1-ethyl-8-methoxy-1,3,4,5-tetrahydro-benzo[b]azepin-2-one]: the IC50 was greater than 10000 nM in assay [1] (setting [9]) and 100 to 1000 nM in assay [2] (setting [10]).
For `CNC(=O)c1cccc(F)c1Nc1nc(Nc2ccc3c(c2)-n2ccnc2CCC3)ncc1Cl` [Example 1837, 2-[5-Chloro-2-(5,6-dihydro-4H-3,10b-diaza-benzo[e]azulen-9-ylamino)-pyrimidin-4-ylamino]-3-fluoro-N-methyl-benzamide], the IC50 in assay [1] (setting [5]) and in assay [2] (setting [6]) was less than 100 nM each time.
